Test results from US10787448B2, “Indolizino [3,2-C] quinoline-based fluorescent probe” (SEOUL NATIONAL UNIVERSITY R & DB FOUNDATION, priority 2015, dated 2020).
“Also recorded” adds a separate entry of the source. Values belong to the compound of their own block, whether it stands above or below them.

Experiments:
[1] = Photostability of fluorescence in aqueous solution or ethanol (natural light, blue light); format: physicochemical; conditions: aqueous solution; for stability of fluorescence under irradiation with blue light: blue light for 2 hours; for photostability: fluorescence over time: natural light, up to 6 hours
Experimental: As a candidate material that can be applied to a fluorescent probe, to confirm how long fluorescence persists in materials with high fluorescence intensity in an aqueous solution among the indolizino[3,2-c]quinoline compounds, photostability according to time in an aqueous solution or ethanol solvent was evaluated as follows.
First, fluorescence of a corresponding material was measured using a cuvette, and the fluorescence per time for the cuvette sample was remeasured until 6 to 7 hours in a natural light state so as to confirm fluorescence stability.
Further, from the above example, when the indolizino[3,2-c]quinoline compounds including the IQ 3, 4, 6 and 8 compounds in which the fluorescence is stably maintained in an aqueous solution for approximately 6 hours are represented by Formula X, some materials in which neither A, B, C nor D ring has a substituent were selected and irradiated with blue light in an aqueous solution, and then a stability experiment was carried out to confirm the maintenance of the fluorescence.

[2] = biological target: Human Serum Albumin (HSA) (Homo sapiens, UniProt P02768); test: Protein binding by fluorescence change (FRET, Job's plot, titration, quantum yield)
Chain of Human Serum Albumin (HSA) (P02768 25-609): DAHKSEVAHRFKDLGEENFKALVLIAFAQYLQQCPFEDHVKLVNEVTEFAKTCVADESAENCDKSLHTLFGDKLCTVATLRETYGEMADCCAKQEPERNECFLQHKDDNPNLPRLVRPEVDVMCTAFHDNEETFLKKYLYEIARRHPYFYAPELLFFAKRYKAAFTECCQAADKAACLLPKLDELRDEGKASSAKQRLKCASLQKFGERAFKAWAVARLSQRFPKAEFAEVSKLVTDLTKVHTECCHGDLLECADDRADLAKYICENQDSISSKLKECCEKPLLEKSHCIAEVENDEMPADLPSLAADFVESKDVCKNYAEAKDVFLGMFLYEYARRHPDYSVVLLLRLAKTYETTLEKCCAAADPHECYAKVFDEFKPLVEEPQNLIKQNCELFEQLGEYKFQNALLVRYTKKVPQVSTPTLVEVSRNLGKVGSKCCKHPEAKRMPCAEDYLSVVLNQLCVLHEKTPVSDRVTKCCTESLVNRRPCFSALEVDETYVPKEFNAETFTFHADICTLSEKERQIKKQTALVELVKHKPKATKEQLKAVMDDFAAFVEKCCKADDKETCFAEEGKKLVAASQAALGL
Experimental: Using a fluorescence spectrophotometer, it was confirmed whether the indolizino[3,2-c]quinoline compound of the present invention binds to a protein. Specifically, among the indolizino[3,2-c]quinoline compounds, 13 types of compounds with high fluorescence in a Tris buffer (pH 7.5) were added to Bovine Serum Albumin (BSA) and Human Serum Albumin (HSA) to observe a fluorescence change.

cells = test: Co-staining / co-localization with DAPI, MitoTracker or LysoTracker; format: cell-based; conditions: for organelle selectivity by co-localization: MitoTracker or LysoTracker
[3] = Analysis of optical characteristics (absorption, fluorescence emission, quantum yield) in solvents; format: physicochemical; conditions: for quantum yield: in ethanol using coumarin 153 as a standard
Experimental: Fluorescence emission spectra were obtained at 20° C. using a JASCO FP-6500 spectrofluorometer, a 10 mM stock solution prepared by dissolving an indolizino[3,2-c]quinoline compound in DMSO was diluted in a solvent. […] Absorption spectra were recorded at room temperature using a Perkin Elmer Lamda 20 UV/VIS spectrometer. […]
Further, the compounds (excluding Entry #51-57, etc.) of Formula 1 were subjected to spectrum analyses in various solvents, and the results are shown in Tables 6 and 7, and FIGS. 5C and 5D.

HeLa cells = test: Cell permeability: fluorescence imaging and live cell confocal imaging; format: cell-based; conditions: HeLa cells
Experimental: HeLa cells were seeded in a 96-well plate and incubated for 24 hours. The cells were treated with the indolizino[3,2-c]quinoline compounds, and incubated at 37° C. under a 5% CO2 condition for 30 minutes. After removal of the medium, the cells were washed with 1×DPBS. The washed cells were fixed with 4% formaldehyde at room temperature for 10 minutes, and washed with 1×DPBS. A cell image was screened using an Operetta HTS imaging system (PerkinElmer).
After HeLa cells were seeded to account for 70 to 80% of the area of a confocal dish (SPL life science) and overnight cultured, the indolizino[3,2-c]quinoline compounds (10 μM) prepared by mixing fresh DMEM after removal of the existing DMEM medium were dispensed, and the cells were incubated for 30 minutes to 1 hour at 37° C. Afterward, if needed, LysoTracker (50 nM) was mixed with DMEM to remove the existing medium and then dispensed to the cells, and the cells were incubated for 30 minutes at 37° C. After incubation, without washing, the cells were examined by a confocal laser microscope (Leica TCS SP8 SMD, Leica, Mannheim, Germany). However, when co-stained with a LysoTracker, the cells were washed with DPBS twice before the microscopy. […]

[4] = system: DNA oligomers (48 bp) tetO sequences; test: Binding to DNA by fluorescence spectrophotometer; conditions: hybridized tetO DNA oligomers added, 1 minute incubation
Experimental: Using a fluorescence spectrophotometer, it was confirmed whether the indolizino[3,2-c]quinoline compound of the present invention binds to DNA. First, DNA oligomers (48 bp) used in the experiment are tetO sequences, and the base sequences thereof are as follows.
The same molarities of oligomers were mixed while being heated at 95° C. for 5 minutes and cooled to room temperature for 2 hours to hybridize, the fluorescence of each of the indolizino[3,2-c]quinoline compounds of the present invention was measured, a corresponding equivalent of DNA oligomer was added to a cuvette, and then incubated while blocking light for 1 minute to measure fluorescence again.

PDEδ = biological target: T1, PDEδ (Homo sapiens, UniProt O43924); test: Titration using fluorescence polarization; format: binding; conditions: 0.5 μM compound, PDEδ protein from 0 to 32 μM
T1 construct: made in house; host or cells: E. coli
T1 sequence (O43924 whole entry): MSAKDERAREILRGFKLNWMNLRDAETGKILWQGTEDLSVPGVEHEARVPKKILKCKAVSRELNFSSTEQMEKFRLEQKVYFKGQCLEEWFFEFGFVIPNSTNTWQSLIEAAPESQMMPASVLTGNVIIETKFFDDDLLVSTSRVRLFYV
Experimental: To confirm whether the indolizino[3,2-c]quinoline compound can bind to a specific intracellular protein, in the presence of 0.5 μM of the indolizino[3,2-c]quinoline compound, titration was performed by increasing the concentration of the PDEδ protein from 0 to 32 μM to measure a polarization degree.

SMILES: c1ccc(-c2nc3ccccc3c3cc4ccccn4c23)cc1 [IQ 4, 6-phenylindolizino[3,2-c]quinoline]
stability of fluorescence under irradiation with blue light [1]: still stably exhibited fluorescence intensity
photostability: fluorescence over time [1]: stably maintained in an aqueous solution up to 6 hours with almost no change
fluorescence change on binding to HSA [2]: increasing fluorescence intensity

SMILES: c1ccc(-c2nc3ccccc3c3cc4ccccn4c23)nc1 [IQ 5, 6-(pyridin-2-yl)indolizino[3,2-c]quinoline]
stability of fluorescence under irradiation with blue light [1]: still stably exhibited fluorescence intensity

SMILES: COc1ccc(-c2nc3ccccc3c3cc4ccccn4c23)cc1OC [IQ 8, 6-(3,4-dimethoxyphenyl)indolizino[3,2-c]quinoline]
photostability: fluorescence over time [1]: stably maintained in an aqueous solution up to 6 hours with almost no change
intracellular organelles in which fluorescence is detected (HeLa cells): stained intensively in the nuclear area
fluorescence change on binding to HSA [2]: increasing fluorescence intensity

SMILES: COc1ccc(-c2nc3ccccc3c3cc4c(C)cccn4c23)cc1OC [IQ 17, 6-(3,4-dimethoxyphenyl)-11-methylindolizino[3,2-c]quinoline]
intracellular molecule recognized (HeLa cells): recognized DNA
intracellular organelles in which fluorescence is detected (HeLa cells): stained intensively in the nuclear area
fluorescence change on binding to HSA [2]: increasing fluorescence intensity
quantum yield (QY) when bound to HSA [2]: 0.4

SMILES: COc1ccc(-c2nc3ccccc3c3cc4cc(/C=C/c5ccccc5)ccn4c23)cc1 [IQ-B19, (E)-6-(4-methoxyphenyl)-10-styrylindolizino[3,2-c]quinoline]
organelle selectivity by co-localization (cells): selectively present in the lysosome
fluorescence (intensity, in words) [3]: high fluorescence in other solvents as well as an aqueous solution

SMILES: COc1ccc(-c2nc3ccccc3c3c(Cl)c4ccccn4c23)cc1 [compound 40]
quantum yield (Φ) ([3]; DW, standard Rhodamine 6G): 0.142
quantum yield (Φ) ([3]; EtOH, standard Coumarin 153): 0.624
change in fluorescence intensity on addition of DNA oligomer [4]: Increase in fluorescence intensity

SMILES: c1coc(-c2nc3ccccc3c3cc4ccccn4c23)c1 [compound 42]
Kd (PDEδ): 425 nM

SMILES: COC(=O)c1c2c3ccccc3nc(-c3cccs3)c2n2ccccc12 [compound 44]
quantum yield (Φ) ([3]; DW, standard Rhodamine 6G): 0.010
quantum yield (Φ) ([3]; EtOH, standard Coumarin 153): 0.050
shift of maximum emission wavelength on addition of DNA oligomer [4]: wavelength to shorter wavelength

SMILES: COc1ccc(-c2nc3ccccc3c3c(-c4ccc(F)cc4)c4ccccn4c23)cc1 [compound 45]
quantum yield (Φ) ([3]; DW, standard Rhodamine 6G): 0.033
quantum yield (Φ) ([3]; EtOH, standard Coumarin 153): 0.557
change in fluorescence intensity on addition of DNA oligomer [4]: No change in fluorescence intensity

Continued, in another order:

fluorescence change on binding to HSA [2]: increasing fluorescence intensity
SMILES: Cc1ccc(-c2nc3ccccc3c3cc4ccccn4c23)cc1 [IQ 3, 6-(p-tolyl)indolizino[3,2-c]quinoline]
stability of fluorescence under irradiation with blue light [1]: still stably exhibited fluorescence intensity
photostability: fluorescence over time [1]: stably maintained in an aqueous solution up to 6 hours with almost no change

solvent-dependent (environment-sensitive) tendency of the emission [3]: solvatochromic effect
peak emission (λmax) ([3]; ethanol solvent (EtOH)): 511 nm
quantum yield [3]: 0.816
SMILES: COc1ccc(-c2nc3ccccc3c3cc4ccccn4c23)cc1 [IQ 6, 6-(4-methoxyphenyl)indolizino[3,2-c]quinoline]
stability of fluorescence under irradiation with blue light [1]: still stably exhibited fluorescence intensity
photostability: fluorescence over time [1]: stably maintained in an aqueous solution up to 6 hours with almost no change
staining pattern compared with conventional dyes (cells): an aspect similar to RNA select for staining RNA
intracellular molecule recognized (HeLa cells): recognized intracellular RNA
intracellular organelles in which fluorescence is detected (HeLa cells): intensively distributed in cytoplasmic and nucleolus areas

quantum yield (QY) when bound to HSA [2]: 0.43
emission after adding 1 equiv. of the compound to HSA ([2]; excited at 280 nm): approximately 450 nm
emission of the compound ([2]; excited at 280 nm): approximately 500 nm
Kd ([2]; titration): 1890 nM
SMILES: COc1cc(OC)cc(-c2nc3ccccc3c3cc4ccccn4c23)c1 [IQ 7, 6-(3,5-Dimethoxyphenyl)indolizino[3,2-c]quinoline]
intracellular organelles in which fluorescence is detected (HeLa cells): stained intensively in the nuclear area
fluorescence change on binding to HSA [2]: fluorescence intensity became higher than the fluorescence of the material; also recorded: increasing fluorescence intensity
FRET with HSA ([2]; excited at 280 nm, 1 equiv. of compound): fluorescence resonance energy transfer (FRET) phenomenon occurred

fluorescence (intensity, in words) [3]: strong fluorescence
solvent-dependent (environment-sensitive) tendency of the emission [3]: solvatochromic effect
peak emission (λmax) ([3]; aqueous solution (H2O)): 465.5 nm
peak emission (λmax) ([3]; ethanol solvent (EtOH)): 516 nm
quantum yield [3]: 0.402
fluorescence change on binding to HSA [2]: increasing fluorescence intensity
SMILES: c1ccc2c(-c3nc4ccccc4c4cc5ccccn5c34)cccc2c1 [IQ 9, 6-(naphthalen-1-yl)indolizino[3,2-c]quinoline]

fluorescence change on binding to HSA [2]: increasing fluorescence intensity
SMILES: c1ccc2cc(-c3nc4ccccc4c4cc5ccccn5c34)ccc2c1 [IQ 10, 6-(naphthalen-2-yl)indolizino[3,2-c]quinoline]

fluorescence change on binding to HSA [2]: increasing fluorescence intensity
SMILES: COc1cc(OC)cc(-c2nc3ccccc3c3cc4c(C)cccn4c23)c1 [IQ 16, 6-(3,5-dimethoxyphenyl)-11-methylindolizino[3,2-c]quinoline]
staining pattern compared with conventional dyes (cells): staining almost similar to DAPI
intracellular molecule recognized (HeLa cells): recognized DNA
intracellular organelles in which fluorescence is detected (HeLa cells): stained intensively in the nuclear area

change in fluorescence intensity on addition of DNA oligomer [4]: gradually decreased
shift of maximum emission wavelength on addition of DNA oligomer [4]: shorter wavelength
SMILES: Cc1cccn2c1cc1c3ccccc3nc(-c3ccco3)c12 [IQ 18, 6-(furan-2-yl)-11-methylindolizino[3,2-c]quinoline]
fluorescence change on light irradiation (cells): increasing fluorescence by receiving light; also recorded: fluorescence is increased
organelle selectivity by co-localization (cells): selectively stains the mitochondria
Pearson's coefficient (cells; co-localization experiment with MitoTracker): ≥ 0.8
intracellular organelles in which fluorescence is detected (HeLa cells): distributed in the mitochondria

fluorescence change on binding to HSA [2]: increasing fluorescence intensity
SMILES: COc1ccc(-c2nc3ccccc3c3c(Cl)c4ccccn4c23)cc1 [IQ 40, 12-chloro-6-(4-methoxyphenypindolizino[3,2-c]quinoline]

quantum yield (Φ) ([3]; DW, standard Rhodamine 6G): 0.001
quantum yield (Φ) ([3]; EtOH, standard Coumarin 153): 0.324
shift of maximum emission wavelength on addition of DNA oligomer [4]: wavelength to longer wavelength
SMILES: CCN(CC)c1ccc(-c2nc3ccccc3c3cc4ccccn4c23)cc1 [compound 37]

quantum yield (Φ) ([3]; DW, standard Rhodamine 6G): 0.039
quantum yield (Φ) ([3]; EtOH, standard Coumarin 153): 0.604
change in fluorescence intensity on addition of DNA oligomer [4]: No change in fluorescence intensity
SMILES: COc1ccc(-c2nc3ccccc3c3c(-c4ccc(Cl)cc4)c4ccccn4c23)cc1 [compound 46]
